From US5817840A, “Water soluble taxol derivatives” (The Scripps Research Institute, priority 1997, dated 1998)
Converted amounts (≈) assume the structure as drawn. Like-named read-outs stand apart in the source and are kept apart here. Blank lines part the entries; values can stand above or below the compound they belong to.

Columns and labels:
physchem = details: d2o
Method: The solubilities of the synthesized protaxols in D2 O were determined by 1H NMR spectroscopy.
The resulting mixture was centrifuged for 20 minutes and the supernatant saturated solution was analysed by ^1 H NMR spectroscopy using a Bruker AMX-400 instrument and methanol or pyridine as internal standard. The concentration of the compound was determined by comparing several signals with the CH3 signal of methanol or the NCH signal of pyridine.

[1] = Taxol release from protaxols in aqueous buffer; type: physicochemical; details: aqueous buffer
Method: The derivatives in which the C-7 hydroxyl group was acetylated were extremely unstable in aqueous media losing the C-7 substituent very rapidly. The stability of the synthesized compounds was examined at various pH's and temperatures. […] Table 1A includes the half-lives of six of these compounds at pH 7.5 and 9. […] This illustrates the ability to fine-tune the rate of release of taxol to a desired set of conditions using simple chemical principles.
Protaxol 5 was dissolved in dimethylsulphoxide (DMSO) at 25° C. and immediately added to the appropriate phosphate buffer solution at the specified temperature. Aliquots were analysed using a Waters Maxima system HPLC instrument equipped with auto-injector (3.9×300 mm C18 column equipped with a precolumn; flow rate, 1.5 ml min^-1; eluant, gradient A-B, where A is 80% 100 mM ammonium acetate, buffer pH 6.0, and B is 100% methanol; ultraviolet detector). The per cent taxol released was determined from the relative areas of the peaks corresponding to protaxol 5 and taxol (the conversion was clean, and it was assumed that the two compounds have equal molar extinction coefficients).

HT-29 (colon carcinoma) = experiment: Cytotoxicity (sulphorhodamine B), cancer cell line, Table 1B; type: cell-based; details: Homo sapiens
Method: (§1) The cytotoxicities were determined using the sulphorhodamine B assay method (Skehan, P. et al. J. Nat. Canc. Inst. 82, 1107 (1990)).

[2] = system: MOLT-4 (T-cell leukaemia); experiment: as above; type: cell-based; details: Homo sapiens
Method: as §1

[3] = system: UCLA-P-3 (lung carcinoma); experiment: as above; type: cell-based; details: Homo sapiens
Method: as §1

[4] = system: HL-60 (promyel carcinoma); experiment: as above; type: cell-based; details: Homo sapiens
Method: as §1

Capan-1 (pancreatic) = experiment: as above; type: cell-based; details: Homo sapiens
Method: as §1

[5] = system: CHO (Chinese hamster ovary); experiment: Cytotoxicity (sulphorhodamine B), normal cell line, Table 1B; type: cell-based; details: Cricetulus griseus
Method: as §1

[6] = system: BT-549 (breast carcinoma); experiment: Cytotoxicity (sulphorhodamine B), cancer cell line, Table 1B; type: cell-based; details: Homo sapiens
Method: as §1

[7] = system: 786-0 (renal cell carcinoma); experiment: as above; type: cell-based; details: Homo sapiens
Method: as §1

[8] = system: RPMI-7666 (normal human PBLs); experiment: Cytotoxicity (sulphorhodamine B), normal cell line, Table 1B; type: cell-based
Method: as §1

NHDF (normal human skin) = experiment: as above; type: cell-based
Method: as §1

[9] = system: BALB/c 3T3 (normal mouse embryo); experiment: as above; type: cell-based
Method: as §1

SK (melanoma) = experiment: Cytotoxicity (sulphorhodamine B), cancer cell line, Table 1B; type: cell-based
Method: as §1

[10] = system: PC-3 (prostate carcinoma); experiment: as above; type: cell-based; details: Homo sapiens
Method: as §1

H322 (lung carcinoma) = experiment: as above; type: cell-based
Method: as §1

[11] = system: CHO (normal human mammary); experiment: Cytotoxicity (sulphorhodamine B), normal cell line, Table 1B; type: cell-based
[12] = system: OVCAR-3 (ovarian carcinoma); experiment: Cytotoxicity (sulphorhodamine B), cancer cell line, Table 1B; type: cell-based; details: Homo sapiens, OVCAR-3, 72 h
Method: as §1

MCF-7 (breast carcinoma) = experiment: as above; type: cell-based; details: Homo sapiens
Method: as §1

SIHA (cervix carcinoma) = experiment: as above; type: cell-based; details: Homo sapiens
Method: as §1

L1210 (mouse leukaemia) = experiment: as above; type: cell-based
Method: as §1

[13] = pH 7.5, 37° C., read-out: t1/2 (pH 7.5), 50% taxol release
[14] = pH 9, 37° C., read-out: t1/2 (pH 9), 50% taxol release

solubility (physchem): 500 µg/mL (≈ 460 µM)
SMILES: CC(=O)O[C@H]1C(=O)[C@]2(C)[C@@H](OC(=O)COCC(=O)O)C[C@H]3OC[C@@]3(OC(C)=O)[C@H]2[C@H](OC(=O)c2ccccc2)[C@]2(O)C[C@H](OC(=O)[C@H](OC(=O)COCC(=O)O)[C@@H](NC(=O)c3ccccc3)c3ccccc3)C(C)=C1C2(C)C [drawing 13]

SMILES: CC(=O)O[C@H]1C(=O)[C@@]2(C)[C@H]([C@H](OC(=O)c3ccccc3)[C@]3(O)C[C@H](OC(=O)[C@H](OC(=O)COCC(=O)O)[C@@H](NC(=O)c4ccccc4)c4ccccc4)C(C)=C1C3(C)C)[C@]1(OC(C)=O)CO[C@@H]1C[C@@H]2O [drawing 5]
solubility (physchem): 840 µg/mL (≈ 866 µM) | half-life [1, 13]: > 500 min | half-life [1, 14]: 110 min

SMILES: CC(=O)O[C@H]1C(=O)[C@@]2(C)[C@H]([C@H](OC(=O)c3ccccc3)[C@]3(O)C[C@H](OC(=O)[C@H](OC(=O)CSCC(=O)O)[C@@H](NC(=O)c4ccccc4)c4ccccc4)C(C)=C1C3(C)C)[C@]1(OC(C)=O)CO[C@@H]1C[C@@H]2O [drawing 6]
solubility (physchem): 350 µg/mL (≈ 355 µM) | half-life [1, 13]: > 500 min | half-life [1, 14]: 300 min

SMILES: CC(=O)O[C@H]1C(=O)[C@@]2(C)[C@H]([C@H](OC(=O)c3ccccc3)[C@]3(O)C[C@H](OC(=O)[C@H](OC(=O)OCCS(=O)(=O)c4ccc([N+](=O)[O-])cc4)[C@@H](NC(=O)c4ccccc4)c4ccccc4)C(C)=C1C3(C)C)[C@]1(OC(C)=O)CO[C@@H]1C[C@@H]2O [drawing 11]
half-life [1, 13]: > 500 min | half-life [1, 14]: 7 min

SMILES: CC(=O)O[C@H]1C(=O)[C@@]2(C)[C@H]([C@H](OC(=O)c3ccccc3)[C@]3(O)C[C@H](OC(=O)[C@H](OC(=O)OCCS(=O)(=O)c4ccc(N)cc4)[C@@H](NC(=O)c4ccccc4)c4ccccc4)C(C)=C1C3(C)C)[C@]1(OC(C)=O)CO[C@@H]1C[C@@H]2O [Compound 10]
IC50 (HT-29 (colon carcinoma); HT-29, 72 h): < 1 nM | IC50 ([2]; MOLT-4, 72 h): < 1 nM | IC50 ([3]; UCLA P-3, 72 h): < 1 nM | IC50 ([4]; HL-60, 72 h): < 1 nM | IC50 (Capan-1 (pancreatic); CAPAN-1, 72 h): < 1 nM | IC50 ([5]; 72 h): 100 µM | IC50 ([6]; BT-549, 72 h): 100 nM | IC50 ([7]; 786-0, 72 h): 1000 nM | IC50 ([8]; 72 h): 100 µM | IC50 (NHDF (normal human skin); 72 h): 1000 nM | IC50 ([9]; BALB/c3T3, 72 h): 10 µM | IC50 (SK (melanoma); 72 h): 10 µM | IC50 ([10]; 72 h): 1000 nM | IC50 (H322 (lung carcinoma); NCI-H322, 72 h): 10 nM | IC50 ([11]; Homo sapiens, 72 h): 100 µM | IC50 [12]: < 1 nM | IC50 (MCF-7 (breast carcinoma); MCF7, 72 h): 10 µM | IC50 (SIHA (cervix carcinoma); SiHa, 72 h): 10 µM | IC50 (L1210 (mouse leukaemia); L1210, 72 h): 10 µM

SMILES: CC(=O)O[C@H]1C(=O)[C@@]2(C)[C@H]([C@H](OC(=O)c3ccccc3)[C@]3(O)C[C@H](OC(=O)[C@H](OC(=O)OCCSc4ccccc4)[C@@H](NC(=O)c4ccccc4)c4ccccc4)C(C)=C1C3(C)C)[C@]1(OC(C)=O)CO[C@@H]1C[C@@H]2O [Compound 7]
IC50 (HT-29 (colon carcinoma); HT-29, 72 h): < 1 nM | IC50 ([2]; MOLT-4, 72 h): < 1 nM | IC50 ([3]; UCLA P-3, 72 h): < 1 nM | IC50 ([4]; HL-60, 72 h): < 1 nM | IC50 (Capan-1 (pancreatic); CAPAN-1, 72 h): < 1 nM | IC50 ([5]; 72 h): 100 µM | IC50 ([6]; BT-549, 72 h): < 1 nM | IC50 ([7]; 786-0, 72 h): 10000 nM | IC50 ([8]; 72 h): 100 µM | IC50 (NHDF (normal human skin); 72 h): 1000 nM | IC50 ([9]; BALB/c3T3, 72 h): 10 µM | IC50 (SK (melanoma); 72 h): 10 µM | IC50 ([10]; 72 h): 1000 nM | IC50 (H322 (lung carcinoma); NCI-H322, 72 h): 1 nM | IC50 ([11]; Homo sapiens, 72 h): 100 µM | IC50 [12]: < 1 nM | IC50 (MCF-7 (breast carcinoma); MCF7, 72 h): 10 µM | IC50 (SIHA (cervix carcinoma); SiHa, 72 h): 10 µM | IC50 (L1210 (mouse leukaemia); L1210, 72 h): 10 µM

SMILES: CC(=O)O[C@H]1C(=O)[C@]2(C)[C@@H](OC(=O)CSCC(=O)O)C[C@H]3OC[C@@]3(OC(C)=O)[C@H]2[C@H](OC(=O)c2ccccc2)[C@]2(O)C[C@H](OC(=O)[C@H](OC(=O)CSCC(=O)O)[C@@H](NC(=O)c3ccccc3)c3ccccc3)C(C)=C1C2(C)C [drawing 14]
solubility (physchem): 460 µg/mL (≈ 411 µM)

SMILES: CC(=O)O[C@H]1C(=O)[C@@]2(C)[C@H]([C@H](OC(=O)c3ccccc3)[C@]3(O)C[C@H](OC(=O)[C@H](OC(=O)OCCS(=O)(=O)c4ccc(N)cc4)[C@@H](NC(=O)c4ccccc4)c4ccccc4)C(C)=C1C3(C)C)[C@]1(OC(C)=O)CO[C@@H]1C[C@@H]2O [drawing 12]
half-life [1, 13]: > 500 min | half-life [1, 14]: 101 min

SMILES: CC(=O)O[C@H]1C(=O)[C@]2(C)[C@@H](OC(=O)CSCC(=O)O)C[C@H]3OC[C@@]3(OC(C)=O)[C@H]2[C@H](OC(=O)c2ccccc2)[C@]2(O)C[C@H](OC(=O)[C@H](OC(=O)CSCC(=O)O)[C@@H](NC(=O)c3ccccc3)c3ccccc3)C(C)=C1C2(C)C [Compound 12]
IC50 (HT-29 (colon carcinoma); HT-29, 72 h): 100 nM | IC50 ([2]; MOLT-4, 72 h): < 1 nM | IC50 ([3]; UCLA P-3, 72 h): 1 nM | IC50 ([4]; HL-60, 72 h): < 1 nM | IC50 (Capan-1 (pancreatic); CAPAN-1, 72 h): < 1 nM | IC50 ([5]; 72 h): 100 µM | IC50 ([6]; BT-549, 72 h): < 1 nM | IC50 ([7]; 786-0, 72 h): 1000 nM | IC50 ([8]; 72 h): 100 µM | IC50 (NHDF (normal human skin); 72 h): 1000 nM | IC50 ([9]; BALB/c3T3, 72 h): 10 µM | IC50 (SK (melanoma); 72 h): 10 µM | IC50 ([10]; 72 h): 1000 nM | IC50 (H322 (lung carcinoma); NCI-H322, 72 h): 100 nM | IC50 ([11]; Homo sapiens, 72 h): 100 µM | IC50 (MCF-7 (breast carcinoma); MCF7, 72 h): 10 µM | IC50 (SIHA (cervix carcinoma); SiHa, 72 h): 10 µM | IC50 (L1210 (mouse leukaemia); L1210, 72 h): 1 µM

SMILES: CC(=O)O[C@H]1C(=O)[C@@]2(C)[C@H]([C@H](OC(=O)c3ccccc3)[C@]3(O)C[C@H](OC(=O)[C@H](OC(=O)OCCS(=O)(=O)c4ccccc4)[C@@H](NC(=O)c4ccccc4)c4ccccc4)C(C)=C1C3(C)C)[C@]1(OC(C)=O)CO[C@@H]1C[C@@H]2O
half-life [1, 13]: > 500 min | half-life [1, 14]: 66 min

SMILES: CC(=O)O[C@H]1C(=O)[C@]2(C)[C@@H](OC(=O)COCC(=O)O)C[C@H]3OC[C@@]3(OC(C)=O)[C@H]2[C@H](OC(=O)c2ccccc2)[C@]2(O)C[C@H](OC(=O)[C@H](OC(=O)COCC(=O)O)[C@@H](NC(=O)c3ccccc3)c3ccccc3)C(C)=C1C2(C)C [Compound 11]
IC50 (HT-29 (colon carcinoma); HT-29, 72 hours, read-out: IC50): < 1 nM | IC50 ([2]; MOLT-4, 72 hours, read-out: IC50): < 1 nM | IC50 ([3]; UCLA-P-3, 72 hours, read-out: IC50): 1 nM | IC50 ([4]; HL-60, 72 hours, read-out: IC50): < 1 nM | IC50 (Capan-1 (pancreatic); Capan-1, 72 hours, read-out: IC50): < 1 nM | IC50 ([5]; CHO, Chinese hamster ovary, 72 hours, read-out: IC50): 100 µM | IC50 ([6]; BT-549, 72 hours, read-out: IC50): < 1 nM | IC50 ([7]; 786-0, 72 hours, read-out: IC50): 1000 nM | IC50 ([8]; RPMI-7666, 72 hours, read-out: IC50): 100 µM | IC50 (NHDF (normal human skin); 72 hours, read-out: IC50): 1000 nM | IC50 ([9]; BALB/c3T3, BALB/c 3T3, 72 hours, read-out: IC50): 1 µM | IC50 (SK (melanoma); SK melanoma, 72 hours, read-out: IC50): 10 µM | IC50 ([10]; PC-3, 72 hours, read-out: IC50): 1000 nM | IC50 (H322 (lung carcinoma); NCI-H322, H322, 72 hours, read-out: IC50): 1 nM | IC50 ([11]; CHO, normal human mammary, 72 hours, read-out: IC50): 100 µM | IC50 (MCF-7 (breast carcinoma); MCF7, CF-7 / MCF-7, 72 hours, read-out: IC50): 10 µM | IC50 (SIHA (cervix carcinoma); SIHA, 72 hours, read-out: IC50): 10 µM | IC50 (L1210 (mouse leukaemia); L1210, 72 hours, read-out: IC50): 1 µM

SMILES: CC(=O)O[C@H]1C(=O)[C@@]2(C)[C@H]([C@H](OC(=O)c3ccccc3)[C@]3(O)C[C@H](OC(=O)[C@H](OC(=O)CS(=O)(=O)CC(=O)O)[C@@H](NC(=O)c4ccccc4)c4ccccc4)C(C)=C1C3(C)C)[C@]1(OC(C)=O)CO[C@@H]1C[C@@H]2O [drawing 7]
solubility (physchem): 1200 µg/mL (≈ 1180 µM) | half-life [1, 13]: > 500 min | half-life [1, 14]: 30 min
